# Values joined by “and” are separate entries in the source; they are usually repeats but may differ in a detail not shown here. Identical values can stand only once. “Also recorded” adds a separate entry of the source. Like-named read-outs stand apart in the source and are kept apart here.
# How the values were obtained:
# M2 receptors = M2 receptors (Homo sapiens, UniProt P08172); experiment: Ligand binding screen at 10 μM
# [1] = system: MK-801-induced hyperactivity; experiment: Reversal of MK-801-induced hyperactivity; assay type: in vivo, Non-Swiss Albino (NSA) mice
# Excerpt: Clinically effective antipsychotic drugs can block the behavioral effects of non-competitive N-methyl-D-aspartate […], such as MK-801. […]. […]
# [2] = system: amphetamine-induced hyperactivity; experiment: Reversal of amphetamine-induced hyperactivity; assay type: in vivo, Non-Swiss Albino (NSA) mice; conditions: s.c. or p.o.
# [3] = Pharmacokinetics after i.v. or oral dose in dogs; assay type: in vivo, beagle dogs; conditions: dog; for concentration at 2 min / concentration at 5 min / concentration at 10 min / concentration at 30 min / concentration at 60 min / concentration at 120 min / concentration at 180 min / concentration at 240 min / concentration at 360 min: plasma; for bioavailability: NDMC p.o. 10 mg/kg vs i.v. 1 mg/kg, read-out: BA (oral bioavailability)
# [4] = biological target: T1, α1A (Alpha 1A) adrenergic receptor (Homo sapiens, UniProt P35348); conditions: R-SAT; nr = no significant antagonist or inverse agonist activity up to 1 μM; nr* = nr but significant agonist activity
# T1 sequence (P35348 1-466): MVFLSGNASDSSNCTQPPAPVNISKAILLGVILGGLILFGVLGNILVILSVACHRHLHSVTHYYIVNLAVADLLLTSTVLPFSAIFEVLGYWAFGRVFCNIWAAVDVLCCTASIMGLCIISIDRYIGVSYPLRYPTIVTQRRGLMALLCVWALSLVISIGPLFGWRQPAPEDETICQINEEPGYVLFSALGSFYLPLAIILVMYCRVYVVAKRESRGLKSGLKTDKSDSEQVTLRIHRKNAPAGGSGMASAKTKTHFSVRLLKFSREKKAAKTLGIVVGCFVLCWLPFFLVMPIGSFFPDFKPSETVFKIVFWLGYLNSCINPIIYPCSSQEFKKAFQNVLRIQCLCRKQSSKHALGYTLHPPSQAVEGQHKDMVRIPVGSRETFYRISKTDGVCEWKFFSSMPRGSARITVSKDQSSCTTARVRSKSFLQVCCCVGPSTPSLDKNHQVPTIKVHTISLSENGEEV
# M1 muscarinic receptor [5] = biological target: T2, M1 muscarinic receptor (Homo sapiens, UniProt P11229)
# T2 sequence (P11229 1-460): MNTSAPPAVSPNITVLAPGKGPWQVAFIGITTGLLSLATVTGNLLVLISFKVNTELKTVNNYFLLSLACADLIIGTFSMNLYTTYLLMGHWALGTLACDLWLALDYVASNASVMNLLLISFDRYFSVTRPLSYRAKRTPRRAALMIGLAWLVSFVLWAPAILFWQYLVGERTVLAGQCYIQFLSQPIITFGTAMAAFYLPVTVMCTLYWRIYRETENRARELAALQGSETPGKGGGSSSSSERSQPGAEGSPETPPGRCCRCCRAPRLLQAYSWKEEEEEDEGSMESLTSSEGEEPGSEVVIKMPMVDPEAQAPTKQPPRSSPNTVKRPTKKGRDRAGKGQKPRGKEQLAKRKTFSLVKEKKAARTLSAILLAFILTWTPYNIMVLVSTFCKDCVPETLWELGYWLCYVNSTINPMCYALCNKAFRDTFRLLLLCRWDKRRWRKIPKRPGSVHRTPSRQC
# [6] = system: MAPK in CA1 region of hippocampus (M1 receptor mediated)
# M1 muscarinic receptor [7] = biological target: T2, M1 muscarinic receptor; experiment: R-SAT agonist assay; assay type: cell-based; design: expressed in transfected cells; host or cells: NIH/3T3
# M2 muscarinic receptor = biological target: T3, M2 muscarinic receptor (Homo sapiens, UniProt P08172); experiment: R-SAT competitive antagonist assay; assay type: cell-based; design: expressed in transfected cells; host or cells: NIH/3T3; conditions: nr = no significant antagonist or inverse agonist activity up to 1 μM, nr* = nr but significant agonist activity
# T3 sequence (P08172 1-466): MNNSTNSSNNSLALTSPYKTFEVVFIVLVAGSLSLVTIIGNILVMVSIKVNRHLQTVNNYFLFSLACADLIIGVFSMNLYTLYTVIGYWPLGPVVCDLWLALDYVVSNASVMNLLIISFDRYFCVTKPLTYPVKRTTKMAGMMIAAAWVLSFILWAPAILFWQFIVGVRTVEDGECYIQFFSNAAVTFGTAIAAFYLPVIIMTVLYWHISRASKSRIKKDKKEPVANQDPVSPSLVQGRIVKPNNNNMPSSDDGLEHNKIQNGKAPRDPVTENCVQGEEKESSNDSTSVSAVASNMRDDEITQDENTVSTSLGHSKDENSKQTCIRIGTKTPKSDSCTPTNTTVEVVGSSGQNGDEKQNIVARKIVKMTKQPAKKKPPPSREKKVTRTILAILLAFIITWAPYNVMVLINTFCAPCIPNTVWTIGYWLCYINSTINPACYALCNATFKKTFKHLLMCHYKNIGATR
# [8] = beagle, iv, 1 mg/kg, Plasma concentration after NDMC administration, NDMC i.v. 1 mg/kg
# [9] = beagle, iv, 1 mg/kg, Plasma concentration of compound measured after clozapine administration, clozapine i.v. 1 mg/kg
# [10] = beagle, po, 10 mg/kg, Plasma concentration after NDMC administration, NDMC p.o. 10 mg/kg
# [11] = beagle, po, 10 mg/kg, Plasma concentration of compound measured after clozapine administration, clozapine p.o. 10 mg/kg
structure (smiles),measurement,setting,value
"Clc1ccc2c(c1)N=C(N1CCNCC1)c1ccccc1N2 [NDMC, 8-chloro-11-(1-piperazinyl)-5H-dibenzo [b,e][1,4] diazepine]",inhibition at 10 µM,M2 receptors,≥ 90%
same,"minimal effective dose, attenuation of MK-801-induced hyperactivity",[1]; p.o.,10 mg/kg
same,"minimal effective dose, attenuation of MK-801-induced hyperactivity",[1]; s.c.,1 mg/kg
same,dose that attenuated amphetamine-induced hyperactivity,[2],10 mg/kg
same,concentration at 2 min,[3]; [8],182 ng/mL
same,concentration at 5 min,[3]; [8],73 ± 22 ng/mL
same,concentration at 10 min,[3]; [8],50 ± 10 ng/mL
same,concentration at 30 min,[3]; [8],35 ± 2 ng/mL
same,concentration at 60 min,[3]; [8],32 ± 6 ng/mL
same,concentration at 120 min,[3]; [8],28 ± 4 ng/mL
same,concentration at 180 min,[3]; [8],27 ± 7 ng/mL
same,concentration at 240 min,[3]; [8],27 ± 4 ng/mL
same,concentration at 2 min,[3]; [9],0.54 ± 0.12 ng/mL
same,concentration at 5 min,[3]; [9],0.47 ± 0.06 ng/mL
same,concentration at 10 min,[3]; [9],0.64 ± 0.26 ng/mL
same,concentration at 30 min,[3]; [9],1.72 ± 0.75 ng/mL
same,concentration at 60 min,[3]; [9],3.55 ± 1.03 ng/mL
same,concentration at 120 min,[3]; [9],4.31 ± 1.34 ng/mL
same,concentration at 180 min,[3]; [9],4.89 ± 1.41 ng/mL
same,concentration at 240 min,[3]; [9],4.44 ± 1.31 ng/mL
same,concentration at 10 min,[3]; [10],1 ng/mL
same,concentration at 30 min,[3]; [10],14 ± 12 ng/mL
same,concentration at 60 min,[3]; [10],67 ± 37 ng/mL
same,concentration at 120 min,[3]; [10],155 ± 95 ng/mL
same,concentration at 180 min,[3]; [10],249 ± 44 ng/mL
same,concentration at 240 min,[3]; [10],274 ± 44 ng/mL
same,concentration at 360 min,[3]; [10],261 ng/mL
same,concentration at 10 min,[3]; [11],0 ng/mL
same,concentration at 30 min,[3]; [11],2.45 ng/mL
same,concentration at 60 min,[3]; [11],25.4 ng/mL
same,concentration at 120 min,[3]; [11],5.8 ng/mL
same,concentration at 180 min,[3]; [11],10.3 ng/mL
same,concentration at 240 min,[3]; [11],19.2 ng/mL
same,concentration at 360 min,[3]; [11],46.7 ng/mL
same,AUC,"[3]; beagle, serum, iv, 1 mg/kg",135 ± 21.3 ng·h/mL
same,Cmax,"[3]; beagle, serum, iv, 1 mg/kg",353 ng/mL
same,Vd,"[3]; beagle, serum, iv, 1 mg/kg",28.2 ± 4.92 L/kg
same,half-life,"[3]; beagle, serum, iv, 1 mg/kg",13.2 ± 7 h
same,bioavailability,"[3]; beagle, serum, oral, 10 mg/kg",~44%
same,AUC,"[3]; beagle, serum, po, 10 mg/kg",598 ± 112 ng·h/mL
same,Cmax,"[3]; beagle, serum, po, 10 mg/kg",286 ng/mL
same,Tmax,"[3]; beagle, serum, po, 10 mg/kg",3.3 ± 1.2 h
same,bioavailability,"[3]; beagle, serum, po, 10 mg/kg",44%
same,time by which Cmax was achieved,[3]; after NDMC p.o. 10 mg/kg,≤ 3.3 h
same,peak NDMC levels as share of peak clozapine levels,[3]; after clozapine,approximately 16%
same,"pKi α1A, competitive antagonist",[4],7.3 ± 0.1
same,"pKi, competitive antagonist",M1 muscarinic receptor [5]; PI hydrolysis in the presence of 3-micromolar carbachol,no response
same,M1 % Efficacy,"M1 muscarinic receptor [5]; PI hydrolysis, relative to carbachol, listed as N-desmethylclozapine",65 ± 10%
same,MAPK activation in CA1 region of hippocampus,"[6]; s.c. 3, 10, 30 and 100 mg/kg, killed two hours later, phospho-MAPK immunoreactivity","stimulation of MAPK activity at all doses in a dose-dependent manner; also recorded: Robust activation was observed, at a dose of 30 mg/kg"
same,dose with statistically significant M1 receptor activation (phospho-MAPK),"[6]; s.c., optical density of CA1 region, vs vehicle",≥ 30 mg/kg
same,Ki,M1 muscarinic receptor [7],50 nM
same,EC50,"M1 muscarinic receptor [7]; M1 pEC50, R-SAT agonist",55 nM and 50.1 nM
same,"pKi M2, competitive antagonist",M2 muscarinic receptor,nr*
